Columns and labels:
α1-adrenoceptors = assay: inhibition of [7-methoxy-3H]prazosin binding to α1-adrenoceptors in rat whole cortical tissue; settings: rat whole cortex, 30 min; for % displacement of radio ligand, α1: at 10^-6 M, [7-methoxy-3H]prazosin, 1 µM; for Ki: [7-methoxy-3H]prazosin 0.1 nM, 30° C.
Procedure: Whole cortical tissue from the brains of male Charles River CD rats weighing between 150-250 g were homogenised in ice-cold 50 mM Tris-HCl, pH 7.6 (at 25° C.; 1:40 w/v) and centrifuged at 1000 g at 4° C. for 10 minutes. The supernatant was centrifuged at 30,000 g at 4° C. for 10 minutes. The pellet was rehomogenised in 50 mM Tris-HCl, pH 7.6 (1:40 w/v) and centrifuged at 30,000 g at 4° C. for 10 minutes. The final pellet was resuspended in 50 mM Tris-HCl, pH 7.6 (equivalent to 12.5 mg wet weight of tissue/ml) and used immediately in the binding assay. Aliquots (400 μl; equivalent to 5 mg wet weight of tissue/tube) of this suspension were added to tubes containing the ligand (50 μl; 0.1 nM) and distilled water (50 μl; total binding) or phentolamine (50 μl; 5 μM; non-specific binding) or test compound (50 μl; at a single concentration of 10^-6 M or at 10 concentrations ranging from 10^-11 -10^-3 M). The ligand was [7-methoxy-^3 H]prazosin and the mixture was incubated at 30° C. for 30 minutes before the incubation was terminated by rapid filtration.
(§1) The filters were washed with ice-cold Tris-HCl buffer and dried. The filters were punched out into vials, scintillation fluid added and radioactivity determined by liquid scintillation counting. The percentage displacement of specific binding of the tritiated ligand was calculated for the single concentration (10^-6 M) of test compound. Displacement curves were then produced for those compounds which displaced ≥50% of specific binding of the tritiated ligand at 10^-6 M using a range of concentrations of the compound. The concentration which gave 50% inhibition of specific binding (IC50) was obtained from the curve. The inhibition coefficient Ki was then calculated using the formula [formula] in which [ligand] is the concentration of the tritiated ligand used and KD is the equilibrium dissociation constant for the ligand.

5-HT1A receptors = target: T1, 5-HT1A receptors (Rattus norvegicus, UniProt P19327); assay: inhibition of [3H]8-OH-DPAT binding to 5-HT1A receptors in rat hippocampal tissue; settings: rat hippocampus; for Ki: [3H]8-OH-DPAT 2 nM, 25° C., 30 min; for inhibition at 1 µM: at 10^-6 M, [3H]8-OH-DPAT, read-out: % displacement of radio ligand, 5-HT1A
T1 construct: Hippocampal tissue from the brains of male Sprague-Dawley rats; from tissue; host or cells: rat hippocampus membranes
T1 sequence (P19327 1-422): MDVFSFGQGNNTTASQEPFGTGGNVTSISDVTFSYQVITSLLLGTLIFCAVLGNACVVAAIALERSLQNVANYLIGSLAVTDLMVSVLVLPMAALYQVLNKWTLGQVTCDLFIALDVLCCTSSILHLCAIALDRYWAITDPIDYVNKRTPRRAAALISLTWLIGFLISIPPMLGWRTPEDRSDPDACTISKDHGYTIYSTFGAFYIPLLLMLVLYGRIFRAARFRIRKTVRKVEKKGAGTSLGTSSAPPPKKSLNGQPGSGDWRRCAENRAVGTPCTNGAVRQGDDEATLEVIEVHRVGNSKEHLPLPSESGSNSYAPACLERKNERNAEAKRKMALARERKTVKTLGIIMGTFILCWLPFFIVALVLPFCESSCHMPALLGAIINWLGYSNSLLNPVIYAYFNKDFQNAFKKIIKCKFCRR
Procedure: Hippocampal tissue from the brains of male Sprague-Dawley rats (Charles River; weight range 150-250 g) was homogenised in ice-cold 50 mM Tris-HCl buffer (pH 7.7 when measured at 25° C., 1:40 w/v) and centrifuged at 30,000 g at 4° C. for 10 minutes. The pellet was rehomogenised in the same buffer, incubated at 37° C. for 10 minutes and centrifuged at 30,000 g at 4° C. for 10 minutes. The final pellet was resuspended in 50 mM Tris-HCl buffer (pH 7.7) containing 4 mM CaCl2, 0.1% L-ascorbic acid and 10 μM pargyline hydrochloride (equivalent to 6.25 mg wet weight of tissue/ml) and used immediately in the binding assay. Aliquots (400 μl; equivalent to 2.5 mg wet weight of tissue/tube) of this suspension were added to tubes containing the ligand (50 μl; 2 nM) and distilled water (50 μl total binding) or 5-HT (50 μl; 10 μM; non-specific binding) or test compound (50 μl; at a single concentration of 10^-6 M or at 10 concentrations ranging from 10^-11 -10^-3 M). The ligand was [^3 H]8-hydroxy-2-(dipropylamino)tetralin ([^3 H]8-OH-DPAT) and the mixture was incubated at 25° C. for 30 minutes before the incubation was terminated by rapid filtration.
as §1

% displacement of radio ligand, α1 (α1-adrenoceptors) [%]	Ki (5-HT1A receptors) [µM]	inhibition at 1 µM (5-HT1A receptors) [%]	Ki (α1-adrenoceptors) [µM]	Compound
	0.019		0.018	COc1cccc2c1OC(CN1CCC(CNC(=O)c3cccnc3N)CC1)CO2 (stereo not drawn) [Example 11, 2-amino-N-{[1-(8-methoxy-1,4-benzodioxan-2-ylmethyl)-4-piperidyl]methyl}pyridine-3-carboxamide]
	0.016		0.132	O=C(NCC1CCN(C[C@H]2COc3ccc(Cl)cc3O2)CC1)c1ccccn1 [Example 12, (S)-N-{[1-(7-chloro-1,4-benzodioxan-2-ylmethyl)-4-piperidyl]methyl}pyridine-2-carboxamide]
	0.038		0.01	Cc1cccc2c1O[C@@H](CN1CCC(CNC(=O)c3cccnc3N)CC1)CO2 [Example 13, (S)-2-amino-N-{[1-(8-methyl-1,4-benzodioxan-2-ylmethyl)-4-piperidyl]methyl}pyridine-3-carboxamide]
	0.026		0.075	Cc1ccc(C(=O)NCC2CCN(C[C@H]3COc4ccc(Cl)cc4O3)CC2)c(N)n1 [Example 14, (S)-2-amino-N-{[1-(7-chloro-1,4-benzodioxan-2-ylmethyl)-4-piperidyl]methyl}-6-methylpyridine-3-carboxamide]
	0.0408		0.017	Nc1ncccc1C(=O)NCC1CCN(C[C@H]2COc3ccccc3O2)CC1 [Example 15, (S)-2-amino-N-{[1-(1,4-benzodioxan-2-ylmethyl)-4-piperidyl]methyl}pyridine-3-carboxamide]
	0.063		0.002	Nc1ccsc1C(=O)NCC1CCN(CC2COc3ccccc3O2)CC1 (stereo not drawn) [Example 16, 3-amino-N-{[1-(1,4-benzodioxan-2-ylmethyl)-4-piperidyl]methyl}thiophene-2-carboxamide]
	0.032		0.07	Nc1ccsc1C(=O)NCC1CCN(C[C@H]2COc3ccc(Cl)cc3O2)CC1 [Example 17, (S)-3-amino-N-{[1-(7-chloro-1,4-benzodioxan-2-ylmethyl)-4-piperidyl]methyl}thiophene-2-carboxamide]
	0.083		0.298	Cc1ncccc1C(=O)NCC1CCN(C[C@H]2COc3ccc(Cl)cc3O2)CC1 [Example 18, (S)-N-{[1-(7-chloro-1,4-benzodioxan-2-ylmethyl)-4-piperidyl]methyl}-2-methylpyridine-3-carboxamide]
	0.041		0.004	Nc1ncccc1C(=O)NCC1CCN(C[C@H]2COc3cccc(C(F)(F)F)c3O2)CC1 [Example 20, (S)-2-amino-N-{[1-(8-trifluoromethyl-1,4-benzodioxan-2-ylmethyl)-4-piperidyl]methyl}pyridine-3-carboxamide]
	0.035		0.172	O=C(NCC1CCN(C[C@H]2COc3ccc(Cl)cc3O2)CC1)c1cccnc1 [Example 22, (S)-N-{[1-(7-chloro-1,4-benzodioxan-2-ylmethyl)-4-piperidyl]methyl}pyridine-3-carboxamide]
	0.07		0.044	O=C(NCC1CCN(C[C@H]2COc3ccc(Cl)cc3O2)CC1)c1cccc2cccnc12 [Example 23, (S)-N-{[1-(7-chloro-1,4-benzodioxan-2-ylmethyl)-4-piperidyl]methyl}quinoline-8-carboxamide]

Continued, compound first:

Compound	% displacement of radio ligand, α1 (α1-adrenoceptors) [%]	Ki (5-HT1A receptors) [µM]	inhibition at 1 µM (5-HT1A receptors) [%]	Ki (α1-adrenoceptors) [µM]
Nc1ncccc1C(=O)NCC1CCN(C[C@H]2COc3ccc(Cl)cc3O2)CC1 [Example 1, (S)-(-)-2-amino-N-{[1-(7-chloro-1,4-benzodioxan-2-ylmethyl)-4-piperidyl]methyl}pyridine-3-carboxamide]	89	0.0415		
Nc1ncccc1C(=O)NCC1CCN(C[C@H]2COc3cccc(Cl)c3O2)CC1 [Example 2, (S)-2-amino-N-{[1-(8-chloro-1,4-benzodioxan-2-ylmethyl)-4-piperidyl]methyl}-pyridine-3-carboxamide]	100		97	
Nc1ncccc1C(=O)NCC1CCN(C[C@H]2COc3cccc(F)c3O2)CC1 [Example 3, (S)-(-)-2-amino-N-{[1-(8-fluoro-1,4-benzodioxan-2-ylmethyl)-4-piperidyl]methyl}pyridine-3-carboxamide]		0.018		0.0053
Nc1ncccc1C(=O)NCC1CCN(CC2COc3ccccc3O2)CC1 (stereo not drawn) [Example 4, 2-amino-N-{[1-(1,4-benzodioxan-2-ylmethyl)-4-piperidyl]methyl}pyridine-3-carboxamide]	89		90	
Cc1ccc2c(c1)O[C@@H](CN1CCC(CNC(=O)c3cccnc3N)CC1)CO2 [Example 5, (S)-2-amino-N-{[1-(7-methyl-1,4-benzodioxan-2-ylmethyl)-4-piperidyl]methyl}pyridine-3-carboxamide]		0.094		0.065
O=C(NCC1CCN(CC2COc3ccccc3O2)CC1)c1ccccn1 (stereo not drawn) [Example 6, N-{[1-(1,4-benzodioxan-2-ylmethyl)-4-piperidyl]methyl}pyridine-2-carboxamide]		0.027		0.021
COc1ccc2c(c1)O[C@@H](CN1CCC(CNC(=O)c3cccnc3N)CC1)CO2 [Example 7, (S)-2-amino-N{[1-(7-methoxy-1,4-benzodioxan-2-ylmethyl)-4-piperidyl]methyl}-pyridine-3-carboxamide]		0.038		0.104
O=C(NCC1CCN(CC2COc3ccccc3O2)CC1)c1cccc2cccnc12 (stereo not drawn) [Example 8, N-{[1-(1,4-benzodioxan-2-ylmethyl)-4-piperidyl]methyl}quinoline-8-carboxamide]		0.012		0.008
Cc1ncccc1C(=O)NCC1CCN(C[C@H]2COc3cccc(Cl)c3O2)CC1 [Example 9, (S)-N-{[1-(8-chloro-1,4-benzodioxan-2-ylmethyl)-4-piperidyl]methyl}-2-methylpyridine-3-carboxamide]		0.054		0.02
Nc1ncccc1C(=O)NCC1CCN(CC2COc3ccc(F)cc3O2)CC1 (stereo not drawn) [Example 10, 2-amino-N-{[1-(7-fluoro-1,4-benzodioxan-2-ylmethyl)-4-piperidyl]methyl}pyridine-3-carboxamide]		0.057		0.14
